Data reported in ChEMBL document CHEMBL5257096, “Accelerating Drug Discovery: Synthesis of Complex Chemotypes via Multicomponent Reactions” (ACS Med Chem Lett, 2023).

Target: Isocitrate dehydrogenase [NADP] cytoplasmic (Homo sapiens, UniProt O75874, R132H)
Assay: Inhibition of IDH1 R132H mutant (unknown origin)

Isocitrate dehydrogenase [NADP] cytoplasmic, sequence (O75874 2-414 R132H limits assumed): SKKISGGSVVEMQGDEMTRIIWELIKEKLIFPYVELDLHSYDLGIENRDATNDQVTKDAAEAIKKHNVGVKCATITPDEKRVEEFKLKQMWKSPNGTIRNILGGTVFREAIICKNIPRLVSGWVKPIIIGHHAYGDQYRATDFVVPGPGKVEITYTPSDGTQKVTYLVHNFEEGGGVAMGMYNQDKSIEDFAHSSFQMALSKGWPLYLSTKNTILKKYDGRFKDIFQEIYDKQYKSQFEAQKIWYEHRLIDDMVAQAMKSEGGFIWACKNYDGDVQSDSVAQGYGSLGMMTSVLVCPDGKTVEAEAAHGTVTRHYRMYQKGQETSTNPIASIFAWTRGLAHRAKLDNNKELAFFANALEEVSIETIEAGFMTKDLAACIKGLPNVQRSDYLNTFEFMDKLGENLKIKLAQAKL

IC50: > 11 µM
SMILES: O=C(NC1CCCCC1)[C@@H](c1ccccc1)N(C(=O)Cc1cccs1)c1cccc(F)c1
